Patent publication EP1002543A1, “Pharmaceutical compositions for the therapy of glioma or prostate cell proliferative disorders containing cyclic rgd compounds” (JCR PHARMACEUTICALS CO., LTD., priority 1998, dated 2000)

Legend:
[1] = tested on: U-373MG cells; test: Effect of cRGD and RGD peptides on growth of human glioma cells (viable cell count by trypan blue dye exclusion; morphology under microscope); format: cell-based; settings: 18 hours; for % inhibition: viable cells vs untreated control
Protocol: (§1) Human glioblastoma, U-87MG, and U-373MG cells were obtained from the American Type Culture Collection, Rockville, MD and grown in Dulbecco's modified Eagle's medium supplemented with 10% fetal calf serum (Hyclone Laboratories Inc. Logan, UT), sodium pyruvate (55 mg/L), sodium bicarbonate (1.2 g/L), HEPES (1.2 g/L) and gentamicin (50 µg/ml). U-251MG cells were provided by Dr. G.Y. Gillespie, University of Alabama at Birmingham, Alabama, and were grown in the above media.
(§2) Semi-confluent monolayers of U-87MG, U-251MG and U-373MG cells were treated with different concentrations of cRGD for 18 hours at 37° C incubator with 5% CO2. One set of cells served as untreated control. The cells were monitored under microscope for morphological changes. Most of the cRGD (10 µg/ml)-treated U-87MG (Figure 2; C=control) and U-373MG cells were rounded up. […] The number of viable cells (both treated and untreated) were then counted by trypan blue dye exclusion method using a hemacytometer (Hausser Scientific, Horsham, PA) and percent inhibition was calculated (Table 1).

[2] = tested on: U-87MG cells; test: as above; format: cell-based; settings: 18 hours; for % inhibition: viable cells vs untreated control
Protocol: as §1, §2

[3] = tested on: U-251MG cells; test: as above; format: cell-based; settings: 18 hours; for % inhibition: viable cells vs untreated control
Protocol: as §1, §2

[4] = tested on: U-87MG cells; test: U-87MG-induced spheroid formation in liquid culture; format: cell-based, Human; settings: treated again after 48 hours, further 72 hours
Protocol: U-87MG cells can be grown either as a monolayer or as multicellular three-dimensional spheroids (500-1,000 µm) in liquid culture. Since spheroids closely resemble the architecture of a tumor in vivo, the cultures were contacted with cRGD or RGD to determine if treatment had any effect on spheroid formation. U-87MG cells (5 ×10^5-1×10^6) were mixed with either cRGD (100µg) or RGD (100µg) peptide or PBS (as untreated control) and incubated at 4° C for 30 minutes. Treated and untreated cells were then seeded onto 24-well plate and incubated further at 37° C. Forty eight hours later; the treated cells were treated again with respective peptides and incubated for 72 hours.
In a second study, U-87MG cells were allowed to grow (in a 24-well plate) for 24 hours before the addition of cyclic (50 µg) or linear (50 µg) peptide. One set of cells, with PBS alone, served as untreated control. Forty eight hours later, the cells were treated again with respective cRGD (50 µg) or RGD (50 µg) peptides and incubated for an additional 72 hours.

[5] = tested on: U-87MG cells; test: Effect of caspase-3 and caspase-9 inhibitors on cell death induced by cRGDfV (viable cell count, percent survival); format: cell-based, Human; settings: U-87MG pretreated with DEVD-FMK (10 µM) or LEHD-FMK (10 µM) for 90 minutes; cRGDfV 20 µg/ml, 18 hours
Source text: To determine whether the observed killing of glioma cells was due to apoptosis, we used inhibitors of caspase-3 (DEVD-FMK) and caspase-9 (LEHD-FMK), two of the cysteine aspartyl proteases, known to be involved in apoptosis (see Salvesen GS, Dixit VM (1997) Cell 91:443-446; Cohen GM (1997) Biochem J326:1-16; Janicke RU, Sprengart ML, Wati MR, Porter AG (1998) J Biol Chem 273:9357-9360; Cardone MH, Roy N, Stennicke, HR, Salvesen GS, Franke TF, Stanbridge E, Frisch S, Reed JC (1998) Science 282:1318-1321; Sakahira H, Enari M, Nagata S (1998) Nature 391:96-99). Caspase-3 is required for morphological changes and cleavage of poly(ADP-ribose) polymerase (PARP), a cellular enzyme implicated in DNA repair mechanism. Caspase-9 is involved in cytochrome c-induced apoptosis by activating procaspase-3 which finally leads to apoptosis. Briefly, U-87MG and U-251MG cells were harvested from monolayer culture and were treated with DEVD-FMK (10 µM) or LEHD-FMK (10 µM) for 90 minutes at 37°C. One set of cells without any inhibitor served as control. Cells were then washed and incubated in the presence or absence of cRGDfV (20 µg/ml) at 37°C, 5% CO2 for 18 hours. The number of viable cells, both in control and treated groups were counted and percent survival was determined.

Molecule	% inhibition ([1]; 10 ug/ml) [%]	% inhibition ([1]; 20 ug/ml) [%]	% inhibition ([2]; 10 ug/ml) [%]	% inhibition ([2]; 20 ug/ml) [%]	% inhibition ([3]; 10 ug/ml) [%]	% inhibition ([3]; 20 ug/ml) [%]	effect on spheroid formation ([4]; first study: 100µg peptide mixed with cells)	morphological changes ([1]; 10 µg/ml)	morphological changes ([2]; 10 µg/ml)	morphological changes ([3]; 10 µg/ml)	number of viable cells after cRGDfV treatment [5]	reduction of the size of the spheroids ([4]; first study: 100µg peptide mixed with cells, vs untreated control)	effect on spheroid formation ([4]; second study: cells grown 24 hours, 50 µg peptide)
N=C(N)NCCC[C@H](N)C(=O)NCC(=O)N[C@@H](CC(=O)O)C(=O)O [RGD, H-Arg-Gly-Asp-OH, reference compound]	6.7	0	0	3.5	0	13	did not appear to effect spheroid formation	–	–	–	–	–	–
cyclo(Arg-Gly-Asp-D-Phe-Val) [cRGD]	46.7	80.0	52.9	70.6	0	5.9	–	rounded up	rounded up	no significant morphological changes	inability of cRGDfV to reduce the number of viable U-87MG cell	at least 70%	significant inhibitory effect on the spheroid formation
